Here are results for 14 compounds from ChEMBL document CHEMBL3739307, “Synthesis and multiparametric evaluation of thiadiazoles and oxadiazoles as diacylglycerol acyltransferase type 1 inhibitors” (Bioorg Med Chem Lett, 2016).

SMILES strings stand for the structures.

The nature of series [1]: Oral bioavailability in rat. The class given is ADME, organism-based. The note with it: in vivo.
A short description of series [2]: Cmax in rat plasma at 10 mg/kg, po administered as single dose. The series is classed as ADME, organism-based. Set-up: dose 10 mg/kg, route oral.
The nature of series [3]: Cmax in rat liver at 10 mg/kg, po administered as single dose. Set-up: dose 10 mg/kg, route oral. The series is classed as ADME, organism-based.
Series [4] can be described thus: Cmax in rat small intestine at 10 mg/kg, po administered as single dose. The class given is ADME, organism-based. Also on record: dose 10 mg/kg, route oral.
Series [5] can be described thus: Cmax in rat heart at 10 mg/kg, po administered as single dose. The series is classed as ADME, organism-based. Also on record: dose 10 mg/kg, route oral.
A short description of series [6]: Cmax in rat brain at 10 mg/kg, po administered as single dose. Also on record: dose 10 mg/kg, route oral. The series is classed as ADME, organism-based.
Series [7] can be described thus: Half life in rat plasma at 10 mg/kg, po administered as single dose. The class given is ADME, organism-based.
Series [8] is described as follows: Tmax in rat at 10 mg/kg, po administered as single dose. Conditions: in vivo. The class given is ADME, organism-based.
The test system of series [9] is Liver microsome. As to the kind of experiment: Metabolic stability in human liver microsomes. The class given is ADME.
Series [10] is described as follows: Metabolic stability in mouse liver microsomes. The series is classed as ADME.
Series [11] has as its system Liver microsome. As to the kind of experiment: Metabolic stability in rat liver microsomes. The class given is ADME. A general note: Liver microsomes are vesicles of endoplasmic reticulum, rich in cytochrome P450 enzymes.
Series [12] can be described thus: Permeability across human Caco2 cells. The series is classed as ADME, cell-based. Conditions: Caco-2, read-out: permeability.

By bioavailability is commonly meant the share of a dose that reaches the circulation, judged against a reference dose that is usually intravenous. The low end stands for poor availability, the high end for good availability. The Cmax is the highest concentration seen after dosing. The term half-life denotes the time needed for the level to fall by half in the phase considered. A low value points to rapid decline. A word on the Tmax: it is the time from dosing to the highest level. `NCCCC[C@H](N)C(=O)O.O=C(Nc1nnc(Cc2cc(F)cc(F)c2)s1)c1ccc(O[C@H]2CC[C@@H](C(=O)O)CC2)cc1`: the bioavailability in series [1] was 40%. The Cmax in series [2] stood at 13.2 µM; in series [3], 248 µM; in [4], 14.3 µM; in series [5], 4.2 µM; in series [6], 0.16 µM. The compound further showed a half-life in series [7] of 7.4 h. The time to peak (Tmax) in [8] came out at 4 h.

Take `O=C(O)C[C@H]1CC[C@H](c2ccc(C(=O)Nc3nnc(COC4CCCC4)s3)cc2)CC1`: the Stability in the series with Liver microsome [9] is listed as 3%; in series [10] it was 0%; in the series on Liver microsome [11] it was 0%. Besides, the Papp in series [12] came out at 10.3 ×10⁻⁶ cm/s.

`O=C(Nc1nnc(NC2CCCC2)s1)c1ccc(O[C@H]2CC[C@@H](C(=O)O)CC2)cc1`: the Stability in the series with Liver microsome [9] was 2%; in [10] it was 3%; with Liver microsome [11] it was 4%. The Papp in series [12] is 0.6 ×10⁻⁶ cm/s.

For `O=C(Nc1nnc(COC2CCCC2)s1)c1ccc(O[C@H]2CC[C@@H](C(=O)O)CC2)cc1`, the Stability in the series with Liver microsome [9] worked out at 5%; in series [10], 8%; in the series on Liver microsome [11] it was 1%. Also, the Papp in series [12] worked out at 4.1 ×10⁻⁶ cm/s.

With `O=C(O)C[C@H]1CC[C@H](c2ccc(C(=O)Nc3nnc(CCC4CCCO4)s3)cc2)CC1` (stereo not given in full), the Stability is given as 9% in the series on Liver microsome [9], 8% in [10] and 3% with Liver microsome [11]. Moreover, the Papp in series [12] came to 7.2 ×10⁻⁶ cm/s.

For `O=C(Nc1nnc(Cc2ccccc2)s1)c1ccc(O[C@H]2CC[C@@H](C(=O)O)CC2)nc1`, the figures for the Stability (in the series with Liver microsome [9]; in [10]; with Liver microsome [11]) were 1%, 23% and 37%, respectively. Further, the Papp in series [12] worked out at 1.1 ×10⁻⁶ cm/s.

In the case of `O=C(Nc1nnc(Nc2ccccc2)s1)c1ccc(O[C@H]2CC[C@@H](C(=O)O)CC2)cc1`, the Stability with Liver microsome [9] was 11%; in series [10], 8%; in the series on Liver microsome [11] it was 4%. In series [12], the Papp amounted to 0.6 ×10⁻⁶ cm/s.

Take `O=C(Nc1nnc(Cc2cc(F)cc(F)c2)s1)c1ccc(O[C@H]2CC[C@@H](C(=O)O)CC2)cc1`: the results for the Stability (in the series on Liver microsome [9]; in series [10]; with Liver microsome [11]) were 1%, 42% and 9%, respectively. Besides, the Papp in [12] turned out to be 2.9 ×10⁻⁶ cm/s. The bioavailability in series [1] worked out at 4%.

On to `O=C(Nc1nnc(Cc2ccccc2)s1)c1ccc(O[C@H]2CC[C@@H](C(=O)O)CC2)cc1`, for which the Stability is recorded as 3% in the series on Liver microsome [9], 27% in [10] and 22% in the series with Liver microsome [11]. In addition, the Papp in series [12] came out at 1.5 ×10⁻⁶ cm/s.

On to `O=C(Nc1nnc(Cc2cc(F)cc(F)c2)s1)c1ccc(O[C@H]2CC[C@H](C(=O)O)CC2)cc1`, for which the Stability was determined as 1% with Liver microsome [9], 9% in series [10] and 8% in the series with Liver microsome [11]. Besides, in series [12], the Papp was determined as 3 ×10⁻⁶ cm/s.

As for `O=C(Nc1nc(Cc2cc(F)cc(F)c2)no1)c1ccc(O[C@H]2CC[C@@H](C(=O)O)CC2)cc1`, the Stability with Liver microsome [9] stood at 1%; in series [10] it was 99%; with Liver microsome [11] it was 61%. Besides, in [12], the Papp was 0.9 ×10⁻⁶ cm/s.

In the case of `O=C(Nc1nnc(Cc2cccc(Cl)c2)s1)c1ccc(O[C@H]2CC[C@@H](C(=O)O)CC2)nc1`, the Stability in the series with Liver microsome [9] is recorded as 2%; in [10], 56%; in the series on Liver microsome [11] it was 27%. Moreover, the Papp in [12] worked out at 1.7 ×10⁻⁶ cm/s.

For the compound `O=C(Nc1nc(Cc2ccccc2)no1)c1ccc(O[C@H]2CC[C@@H](C(=O)O)CC2)cc1`, the Stability came to 2% in the series with Liver microsome [9], 100% in series [10] and 53% in the series on Liver microsome [11]. Also, in series [12], the Papp was 2.9 ×10⁻⁶ cm/s.

Consider `O=C(O)C[C@H]1CC[C@H](c2ccc(C(=O)Nc3nnc(Cc4ccccc4)s3)cc2)CC1`, for which the Stability is 0% with Liver microsome [9], 5% in [10] and 11% in the series with Liver microsome [11].
